pEC50, pIC50: −log10 of the molar value. One block for each compound: values may come before it.
Tests used:
ULK1 kinase domain = target: T1, ULK1 kinase domain (Homo sapiens, UniProt O75385); assay: Differential scanning fluorimetry (thermal shift); assay type: binding; conditions: 2 μM ULK1 kinase domain, 50 μM compound, vs DMSO reference
T1 construct: The protein expression construct of ULK1 kinase domain (1-283) was cloned; 6His-Sumo (N, cleaved yes); made in house; host or cells: E. coli BL21 star, co-expressed with lambda phosphatase
T1 sequence (O75385 1-283): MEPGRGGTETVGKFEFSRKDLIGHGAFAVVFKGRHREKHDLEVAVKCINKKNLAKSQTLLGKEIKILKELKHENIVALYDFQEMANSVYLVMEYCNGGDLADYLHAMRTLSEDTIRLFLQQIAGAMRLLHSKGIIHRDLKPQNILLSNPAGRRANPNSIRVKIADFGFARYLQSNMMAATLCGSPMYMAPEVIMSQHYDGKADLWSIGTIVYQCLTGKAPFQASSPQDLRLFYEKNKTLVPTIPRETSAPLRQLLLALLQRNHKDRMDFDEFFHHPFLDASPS

GST-ULK1 = target: T2, GST-ULK1 (Homo sapiens, UniProt O75385); assay: LanthaScreen ULK1 inhibitor assay; assay type: biochemical; conditions: 5 nM GST-ULK1, 30 nM tracer, 20 μM ATP, 1 hr room temperature
T2 sequence (O75385 1-1050): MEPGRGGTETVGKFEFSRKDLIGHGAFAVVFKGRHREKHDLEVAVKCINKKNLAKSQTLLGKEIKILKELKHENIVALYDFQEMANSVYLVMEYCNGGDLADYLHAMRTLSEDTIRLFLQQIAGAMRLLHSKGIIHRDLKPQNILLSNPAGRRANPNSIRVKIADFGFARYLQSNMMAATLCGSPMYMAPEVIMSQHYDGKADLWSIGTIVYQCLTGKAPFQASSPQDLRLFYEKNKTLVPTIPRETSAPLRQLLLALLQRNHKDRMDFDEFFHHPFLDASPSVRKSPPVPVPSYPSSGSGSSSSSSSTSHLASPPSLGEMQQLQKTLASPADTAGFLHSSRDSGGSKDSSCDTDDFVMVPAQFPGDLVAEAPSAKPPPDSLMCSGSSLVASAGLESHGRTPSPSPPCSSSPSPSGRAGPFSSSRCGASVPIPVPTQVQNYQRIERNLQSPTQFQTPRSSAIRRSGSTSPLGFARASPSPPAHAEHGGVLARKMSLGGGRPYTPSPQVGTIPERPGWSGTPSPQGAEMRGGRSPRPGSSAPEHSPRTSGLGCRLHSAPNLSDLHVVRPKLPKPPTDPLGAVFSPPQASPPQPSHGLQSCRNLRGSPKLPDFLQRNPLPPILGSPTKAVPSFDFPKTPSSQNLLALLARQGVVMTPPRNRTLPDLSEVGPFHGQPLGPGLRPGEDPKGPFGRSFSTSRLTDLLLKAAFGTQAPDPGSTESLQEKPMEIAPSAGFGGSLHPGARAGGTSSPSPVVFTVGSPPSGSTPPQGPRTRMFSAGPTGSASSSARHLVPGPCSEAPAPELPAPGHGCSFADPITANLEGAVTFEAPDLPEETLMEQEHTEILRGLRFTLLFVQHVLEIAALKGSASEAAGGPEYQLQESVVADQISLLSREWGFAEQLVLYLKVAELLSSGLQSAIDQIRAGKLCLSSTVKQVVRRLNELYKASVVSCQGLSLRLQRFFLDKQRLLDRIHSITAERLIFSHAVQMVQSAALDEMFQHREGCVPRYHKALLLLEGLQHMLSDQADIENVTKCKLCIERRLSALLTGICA

ULK1-nanoluc = target: T3, ULK1-nanoluc (Homo sapiens, UniProt O75385); assay: NanoBRET target engagement in live cells; assay type: cell-based; conditions: H2030 cells transfected with ULK1-nanoluc, Tracer K10, 2 hr
T3 construct: host or cells: H2030 cells (ATCC)
T3 sequence (O75385 1-1050): T2 sequence (O75385 1-1050)

ULK1 kinase = target: T4, ULK1 kinase (Homo sapiens, UniProt O75385); assay: Radiometric HotSpot kinase assay (Reaction Biology); assay type: biochemical; conditions: activity-based ULK1 kinase assay
T4 construct: purchased Reaction Biology
T4 sequence (O75385 1-1050): T2 sequence (O75385 1-1050)

SMILES: C[C@@H](CO)NC(=O)c1nc(-c2cnc3[nH]c(-c4ccc(F)cc4)cc3c2)cs1 [Compound 76, (S)-4-(2-(4-fluorophenyl)-1H-pyrrolo[2,3-b]pyridin-5-yl)-N-(1-hydroxypropan-2-yl)thiazole-2-carboxamide]
ΔTm at 50 µM (ULK1 kinase domain): 7.56 °C
pIC50 (GST-ULK1): 7.60
pEC50 (ULK1-nanoluc): 6.27
IC50 (ULK1 kinase): 44 nM

SMILES: CC[C@@H](CO)NC(=O)c1cccc(-c2cnc3[nH]c(-c4ccc(F)cc4)cc3c2)n1 [Compound 59, (S)-6-(2-(4-Fluorophenyl)-1H-pyrrolo[2,3-b]pyridin-5-yl)-N-(1-hydroxybutan-2-yl)-picolinamide]
ΔTm at 50 µM (ULK1 kinase domain): 11 °C
pIC50 (GST-ULK1): 8.00
pEC50 (ULK1-nanoluc): 6.83
IC50 (ULK1 kinase): 7 nM

SMILES: FC(F)(F)c1cnc2[nH]c(C3=CCOCC3)cc2c1NCCN1CCOCC1 [Compound 89, 2-(3,6-dihydro-2H-pyran-4-yl)-N-(2-morpholinoethyl)-5-(trifluoromethyl)-1H-pyrrolo[2,3-b]pyridin-4-amine]
ΔTm at 50 µM (ULK1 kinase domain): 8.13 °C
pIC50 (GST-ULK1): 7.04
pEC50 (ULK1-nanoluc): 5.94
IC50 (ULK1 kinase): 37 nM

SMILES: FC(F)(F)c1cnc2[nH]c(C3=CCOCC3)cc2c1NCCN1CCNCC1 [Compound 87, 2-(3,6-dihydro-2H-pyran-4-yl)-N-(2-(piperazin-1-yl)ethyl)-5-(trifluoromethyl)-1H-pyrrolo[2,3-b]pyridin-4-amine]
ΔTm at 50 µM (ULK1 kinase domain): 12.5 °C
pIC50 (GST-ULK1): 7.80
pEC50 (ULK1-nanoluc): 7.12
IC50 (ULK1 kinase): 10 nM

SMILES: O=C(NC[C@H](O)CO)c1cccc(-c2cnc3[nH]c(-c4ccc(F)cc4)cc3c2)n1 [Compound 58, (S)—N-(2,3-Dihydroxypropyl)-6-(2-(4-fluorophenyl)-1H-pyrrolo[2,3-b]pyridin-5-yl)-picolinamide]
ΔTm at 50 µM (ULK1 kinase domain): 9.22 °C
pIC50 (GST-ULK1): 7.17
pEC50 (ULK1-nanoluc): 5.63
IC50 (ULK1 kinase): 22 nM

pIC50 (GST-ULK1): 7.80
pEC50 (ULK1-nanoluc): 5.95
SMILES: C[C@@H](CO)NC(=O)c1cc(-c2cnc3[nH]c(C4=CCNCC4)cc3c2)cs1 [Compound 106]

SMILES: O=C(NCC1(O)CC1)c1nc(-c2cnc3[nH]c(-c4ccc(F)cc4)cc3c2)cs1 [Compound 73, 4-(2-(4-fluorophenyl)-1H-pyrrolo-[2,3-b]pyridin-5-yl)-N-((1-hydroxy-cyclopropyl)methyl)thiazole-2-carboxamide]
ΔTm at 50 µM (ULK1 kinase domain): 7.72 °C
pIC50 (GST-ULK1): 8.52
pEC50 (ULK1-nanoluc): 6.71
IC50 (ULK1 kinase): 10 nM

SMILES: CN1CC=C(c2cc3c(NC4CCNC4)c(C(F)(F)F)cnc3[nH]2)CC1 (stereo not shown) [Compound 98, 2-(1-methyl-1,2,3,6-tetrahydropyridin-4-yl)-N-(pyrrolidin-3-yl)-5-(trifluoromethyl)-1H-pyrrolo[2,3-b]pyridin-4-amine]
ΔTm at 50 µM (ULK1 kinase domain): 10.3 °C
pIC50 (GST-ULK1): 7.24
pEC50 (ULK1-nanoluc): 6.74
IC50 (ULK1 kinase): 144 nM

pIC50 (GST-ULK1): 7.72
pEC50 (ULK1-nanoluc): 6.41
SMILES: C[C@@H](CO)NC(=O)c1cc(-c2cnc3[nH]c(C4=CCN(C)CC4)cc3c2)cs1 [Compound 107]

SMILES: O=C(NCC1CC1)c1nc(-c2cnc3[nH]c(-c4ccc(F)cc4)cc3c2)cs1 [Compound 71, N-(cyclopropylmethyl)-4-(2-(4-fluorophenyl)-1H-pyrrolo[2,3-b]-pyridin-5-yl)thiazole-2-carboxamide]
ΔTm at 50 µM (ULK1 kinase domain): 3.73 °C
pIC50 (GST-ULK1): 7.41
pEC50 (ULK1-nanoluc): 6.38
IC50 (ULK1 kinase): 14 nM

SMILES: CN1CC=C(c2cc3c(NCCN4CCNCC4)c(C(F)(F)F)cnc3[nH]2)CC1 [Compound 101, 2-(1-methyl-1,2,3,6-tetrahydropyridin-4-yl)-N-(2-(piperazin-1-yl)ethyl)-5-(trifluoromethyl)-1H-pyrrolo[2,3-b]pyridin-4-amine]
ΔTm at 50 µM (ULK1 kinase domain): 11 °C
pIC50 (GST-ULK1): 7.30
pEC50 (ULK1-nanoluc): 6.80
IC50 (ULK1 kinase): 131 nM

SMILES: CC[C@@H](CO)NC(=O)c1nc(-c2cnc3[nH]c(-c4ccc(F)cc4)cc3c2)cs1 [Compound 61, (S)-4-(2-(4-Fluorophenyl)-1H-pyrrolo[2,3-b]pyridin-5-yl)-N-(1-hydroxybutan-2-yl)-thiazole-2-carboxamide]
ΔTm at 50 µM (ULK1 kinase domain): 9.31 °C
pIC50 (GST-ULK1): 8.15
pEC50 (ULK1-nanoluc): 6.88
IC50 (ULK1 kinase): 8 nM

pIC50 (GST-ULK1): 7.59
pEC50 (ULK1-nanoluc): 6.66
SMILES: O=C(NCC1(O)CC1)c1cc(-c2cnc3[nH]c(C4=CNCCC4)cc3c2)cs1 [Compound 108]

SMILES: O=C(NCC(O)C(F)(F)F)c1nc(-c2cnc3[nH]c(-c4ccc(F)cc4)cc3c2)cs1 (stereo not shown) [Compound 65, 4-(2-(4-Fluorophenyl)-1H-pyrrolo[2,3-b]pyridin-5-yl)-N-(3,3,3-trifluoro-2-hydroxy-propyl)thiazole-2-carboxamide]
ΔTm at 50 µM (ULK1 kinase domain): 7.12 °C
pIC50 (GST-ULK1): 7.77
pEC50 (ULK1-nanoluc): 6.91
IC50 (ULK1 kinase): 29 nM

SMILES: O=C(NCCF)c1nc(-c2cnc3[nH]c(-c4ccc(F)cc4)cc3c2)cs1 [Compound 78, N-(2-fluoroethyl)-4-(2-(4-fluoro-phenyl)-1H-pyrrolo[2,3-b]pyridin-5-yl)thiazole-2-carboxamide]
ΔTm at 50 µM (ULK1 kinase domain): 4.83 °C
pIC50 (GST-ULK1): 7.57
pEC50 (ULK1-nanoluc): 6.55
IC50 (ULK1 kinase): 20 nM

SMILES: O=C(NCC1(O)CCC1)c1nc(-c2cnc3[nH]c(-c4ccc(F)cc4)cc3c2)cs1 [Compound 70, 4-(2-(4-fluorophenyl)-1H-pyrrolo[2,3-b]pyridin-5-yl)-N-((1-hydroxycyclobutyl)methyl)thiazole-2-carboxamide]
ΔTm at 50 µM (ULK1 kinase domain): 8.04 °C
pIC50 (GST-ULK1): 8.10
pEC50 (ULK1-nanoluc): 6.89
IC50 (ULK1 kinase): 22 nM

pIC50 (GST-ULK1): 7.82
pEC50 (ULK1-nanoluc): 6.02
SMILES: C[C@@H](CO)NC(=O)c1cc(-c2cnc3[nH]c(C4=CCCNC4)cc3c2)cs1 [Compound 102]

pIC50 (GST-ULK1): 9.00
pEC50 (ULK1-nanoluc): 7.07
SMILES: FC1(F)CN(c2c(C(F)(F)F)cnc3[nH]c(C4=CCNC4)cc23)C1 [Compound 140]

SMILES: O=C(NCC(F)(F)F)c1cc(-c2cnc3[nH]c(-c4ccc(OCCN5CCCCC5)cc4)cc3c2)cs1 [Compound 38, 4-(2-(4-(2-(Piperidin-1-yl)ethoxy)phenyl)-1H-pyrrolo[2,3-b]pyridin-5-yl)-N-(2,2,2-trifluoroethyl)thiophene-2-carboxamide]
ΔTm at 50 µM (ULK1 kinase domain): 12.8 °C
pIC50 (GST-ULK1): 7.85
pEC50 (ULK1-nanoluc): 7.66
IC50 (ULK1 kinase): 15 nM

SMILES: O=C(NCC(F)F)c1nc(-c2cnc3[nH]c(-c4ccc(F)cc4)cc3c2)cs1 [Compound 79, N-(2,2-difluoroethyl)-4-(2-(4-fluorophenyl)-1H-pyrrolo[2,3-b]-pyridin-5-yl)thiazole-2-carboxamide]
ΔTm at 50 µM (ULK1 kinase domain): 5.45 °C
pIC50 (GST-ULK1): 7.80
pEC50 (ULK1-nanoluc): 6.81
IC50 (ULK1 kinase): 12 nM

— US20250042895A1, “INHIBITORS OF ULK1 AND METHODS OF USE” (H. LEE MOFFITT CANCER CENTER AND RESEARCH INSTITUTE, INC., priority 2021, published 2025)
